Data: ChEMBL document CHEMBL1159216, “Imperanene, a novel phenolic compound with platelet aggregation inhibitory activity from Imperata cylindrica” (J Nat Prod, 1995)
Activity calls are given as the source filed them. The rule behind the calls is not given here.

System: Platelet
Assay: Antiplatelet activity in Japanese white rabbit platelet assessed as inhibition of thrombin-induced platelet aggregation at 600 uM preincubated 5 mins before thrombin challenge
Format: functional, cell-based
Details: Oryctolagus cuniculus

COc1cc(/C=C/[C@@H](CO)Cc2ccc(O)c(OC)c2)ccc1O
Activity: Active
